Experiments:
Format in all cases: biochemical
PI3Kγ = molecular target: T1, PI3Kγ (Homo sapiens, UniProt P48736); assay: ADP-Glo lipid kinase assay
T1 construct: gene PIK3CG
Source text: ADP-Glo lipid kinase assay on PI3Kγ | IC50 of ZDQ-0620 against PI3K kinase in vitro.

PI3Kβ = molecular target: T2, PI3Kβ (Homo sapiens, UniProt P42338); assay: ADP-Glo lipid kinase assay; supported by CETSA in HCT116 cells (weaker than PI3Kα)
T2 construct: gene PIK3CB
Source text: ADP-Glo lipid kinase assay; supported by CETSA in HCT116 cells (weaker than PI3Kα) on PI3Kβ | IC50 of ZDQ-0620 against PI3K kinase in vitro.

PI3Kδ = molecular target: T3, PI3Kδ (Homo sapiens, UniProt O00329); assay: ADP-Glo lipid kinase assay
T3 construct: gene PIK3CD
T3 sequence (O00329 1-1044): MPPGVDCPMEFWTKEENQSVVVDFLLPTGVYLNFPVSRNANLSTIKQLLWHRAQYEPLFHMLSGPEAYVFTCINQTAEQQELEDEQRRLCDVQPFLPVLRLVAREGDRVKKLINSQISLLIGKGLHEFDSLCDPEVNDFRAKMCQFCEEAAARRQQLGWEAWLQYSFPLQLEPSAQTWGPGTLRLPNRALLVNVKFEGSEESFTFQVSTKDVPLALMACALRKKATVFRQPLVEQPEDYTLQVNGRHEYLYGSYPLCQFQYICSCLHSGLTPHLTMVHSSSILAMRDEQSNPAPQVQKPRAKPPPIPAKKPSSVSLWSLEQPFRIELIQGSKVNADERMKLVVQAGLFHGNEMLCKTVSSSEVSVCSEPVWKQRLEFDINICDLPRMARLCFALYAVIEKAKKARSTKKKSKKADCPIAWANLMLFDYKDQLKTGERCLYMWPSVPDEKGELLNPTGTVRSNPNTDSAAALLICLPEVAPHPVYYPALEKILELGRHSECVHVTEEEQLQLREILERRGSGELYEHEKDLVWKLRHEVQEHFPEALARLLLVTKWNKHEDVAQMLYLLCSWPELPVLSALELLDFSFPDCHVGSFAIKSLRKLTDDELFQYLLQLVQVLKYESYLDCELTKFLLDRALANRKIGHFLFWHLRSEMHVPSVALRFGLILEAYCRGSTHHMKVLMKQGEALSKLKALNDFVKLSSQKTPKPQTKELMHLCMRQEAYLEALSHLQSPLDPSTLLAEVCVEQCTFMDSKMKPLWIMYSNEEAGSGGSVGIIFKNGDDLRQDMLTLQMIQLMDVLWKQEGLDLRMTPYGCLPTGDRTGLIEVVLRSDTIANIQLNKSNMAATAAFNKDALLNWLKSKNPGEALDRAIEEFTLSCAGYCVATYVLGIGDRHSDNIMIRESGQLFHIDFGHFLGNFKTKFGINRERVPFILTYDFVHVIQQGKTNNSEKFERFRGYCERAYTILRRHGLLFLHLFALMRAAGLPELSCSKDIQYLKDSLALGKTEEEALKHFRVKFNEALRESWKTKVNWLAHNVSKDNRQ
Source text: ADP-Glo lipid kinase assay on PI3Kδ | IC50 of ZDQ-0620 against PI3K kinase in vitro.

PI3Kα = molecular target: T4, PI3Kα (Homo sapiens, UniProt P42336); assay: ADP-Glo lipid kinase assay; supported by CETSA/ITDRF-CETSA in HCT116 cells
T4 construct: gene PIK3CA
T4 sequence (P42336 whole entry): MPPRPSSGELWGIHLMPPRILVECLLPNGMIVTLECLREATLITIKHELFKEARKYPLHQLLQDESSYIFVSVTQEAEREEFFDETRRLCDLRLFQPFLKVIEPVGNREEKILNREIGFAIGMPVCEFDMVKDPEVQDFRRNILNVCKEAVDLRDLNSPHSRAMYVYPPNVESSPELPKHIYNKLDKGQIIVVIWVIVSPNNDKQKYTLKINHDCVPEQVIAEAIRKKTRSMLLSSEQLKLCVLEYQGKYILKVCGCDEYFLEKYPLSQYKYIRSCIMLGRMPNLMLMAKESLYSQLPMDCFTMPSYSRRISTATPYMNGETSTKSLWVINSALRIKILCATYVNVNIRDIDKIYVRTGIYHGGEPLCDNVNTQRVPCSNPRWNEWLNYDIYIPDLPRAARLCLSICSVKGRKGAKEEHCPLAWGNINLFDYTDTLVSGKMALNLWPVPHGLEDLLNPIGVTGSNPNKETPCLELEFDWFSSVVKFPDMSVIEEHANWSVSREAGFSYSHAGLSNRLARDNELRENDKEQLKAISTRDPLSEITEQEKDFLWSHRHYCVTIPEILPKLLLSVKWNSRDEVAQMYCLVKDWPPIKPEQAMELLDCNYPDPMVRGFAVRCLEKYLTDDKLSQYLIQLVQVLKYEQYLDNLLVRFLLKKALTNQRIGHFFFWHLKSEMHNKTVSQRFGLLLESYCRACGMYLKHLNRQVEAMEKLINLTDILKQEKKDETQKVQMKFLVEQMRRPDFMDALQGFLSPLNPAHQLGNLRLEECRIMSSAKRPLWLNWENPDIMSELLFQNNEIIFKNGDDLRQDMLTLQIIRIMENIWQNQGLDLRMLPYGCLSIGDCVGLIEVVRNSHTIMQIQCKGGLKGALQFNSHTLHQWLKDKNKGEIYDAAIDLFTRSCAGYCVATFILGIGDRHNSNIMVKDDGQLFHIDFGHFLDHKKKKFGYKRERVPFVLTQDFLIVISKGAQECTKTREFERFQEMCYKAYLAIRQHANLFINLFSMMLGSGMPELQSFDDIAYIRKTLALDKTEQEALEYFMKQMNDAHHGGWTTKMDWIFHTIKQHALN

T1 sequence (P48736 whole entry): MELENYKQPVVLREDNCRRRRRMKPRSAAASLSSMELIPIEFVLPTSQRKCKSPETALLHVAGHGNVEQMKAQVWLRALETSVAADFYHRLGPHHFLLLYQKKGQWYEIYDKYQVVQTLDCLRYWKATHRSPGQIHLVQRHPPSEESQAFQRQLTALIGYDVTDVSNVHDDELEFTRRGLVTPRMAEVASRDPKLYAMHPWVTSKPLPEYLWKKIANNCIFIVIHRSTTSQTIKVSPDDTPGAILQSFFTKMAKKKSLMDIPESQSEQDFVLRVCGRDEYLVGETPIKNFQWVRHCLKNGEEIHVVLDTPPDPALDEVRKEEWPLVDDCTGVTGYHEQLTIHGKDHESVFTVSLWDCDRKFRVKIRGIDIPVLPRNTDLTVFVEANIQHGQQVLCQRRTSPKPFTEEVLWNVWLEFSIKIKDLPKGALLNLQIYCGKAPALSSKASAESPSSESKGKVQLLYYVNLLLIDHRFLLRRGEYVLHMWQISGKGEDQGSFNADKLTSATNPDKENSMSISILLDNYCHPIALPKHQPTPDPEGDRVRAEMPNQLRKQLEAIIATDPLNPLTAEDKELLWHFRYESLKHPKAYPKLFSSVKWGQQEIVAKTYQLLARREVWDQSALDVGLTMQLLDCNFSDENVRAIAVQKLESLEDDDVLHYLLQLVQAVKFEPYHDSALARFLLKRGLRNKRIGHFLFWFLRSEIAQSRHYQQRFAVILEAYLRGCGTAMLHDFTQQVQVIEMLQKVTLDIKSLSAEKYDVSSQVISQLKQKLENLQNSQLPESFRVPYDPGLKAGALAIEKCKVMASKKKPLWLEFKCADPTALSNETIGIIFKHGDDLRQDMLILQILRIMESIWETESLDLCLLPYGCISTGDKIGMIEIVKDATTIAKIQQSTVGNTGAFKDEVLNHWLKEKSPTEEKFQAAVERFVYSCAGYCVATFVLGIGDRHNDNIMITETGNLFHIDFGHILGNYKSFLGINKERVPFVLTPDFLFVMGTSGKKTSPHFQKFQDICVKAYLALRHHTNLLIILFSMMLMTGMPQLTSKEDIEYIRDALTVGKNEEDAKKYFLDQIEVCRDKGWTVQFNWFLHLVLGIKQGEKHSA
T2 sequence (P42338 whole entry): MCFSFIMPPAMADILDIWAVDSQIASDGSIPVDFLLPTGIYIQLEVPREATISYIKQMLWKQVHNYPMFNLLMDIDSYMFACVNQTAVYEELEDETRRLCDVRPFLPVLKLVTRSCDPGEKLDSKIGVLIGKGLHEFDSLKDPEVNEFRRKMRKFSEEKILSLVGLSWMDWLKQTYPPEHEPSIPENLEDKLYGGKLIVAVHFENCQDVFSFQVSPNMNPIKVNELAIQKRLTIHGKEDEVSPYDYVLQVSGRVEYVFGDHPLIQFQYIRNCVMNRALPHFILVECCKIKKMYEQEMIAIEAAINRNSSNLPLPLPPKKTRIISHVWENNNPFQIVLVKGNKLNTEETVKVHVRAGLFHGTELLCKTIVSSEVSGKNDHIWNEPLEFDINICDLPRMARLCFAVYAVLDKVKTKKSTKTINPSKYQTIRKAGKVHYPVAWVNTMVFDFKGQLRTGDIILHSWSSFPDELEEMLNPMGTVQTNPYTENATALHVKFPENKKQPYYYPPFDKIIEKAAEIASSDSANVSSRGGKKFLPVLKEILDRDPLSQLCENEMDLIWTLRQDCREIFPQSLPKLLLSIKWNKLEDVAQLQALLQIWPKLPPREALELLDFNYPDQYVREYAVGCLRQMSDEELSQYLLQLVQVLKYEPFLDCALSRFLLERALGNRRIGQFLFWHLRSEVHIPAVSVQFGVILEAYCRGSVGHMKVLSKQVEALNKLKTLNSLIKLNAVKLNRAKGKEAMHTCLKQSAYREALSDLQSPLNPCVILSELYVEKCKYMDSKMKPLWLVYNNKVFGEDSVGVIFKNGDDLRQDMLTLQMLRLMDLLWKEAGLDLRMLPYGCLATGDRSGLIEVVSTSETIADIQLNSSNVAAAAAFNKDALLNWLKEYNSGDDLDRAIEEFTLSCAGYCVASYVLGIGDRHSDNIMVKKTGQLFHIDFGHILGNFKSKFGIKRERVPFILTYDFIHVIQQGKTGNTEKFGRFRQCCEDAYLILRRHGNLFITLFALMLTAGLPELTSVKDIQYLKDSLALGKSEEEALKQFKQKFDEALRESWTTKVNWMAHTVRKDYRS

An IC50 (PI3Kγ) of 55 nM, an IC50 (PI3Kβ) of 93 nM and an IC50 (PI3Kδ) of 152 nM were found for `COc1ncc(-c2ccc3c(c2)N(CCCN2CCOCC2)C(=O)CO3)cc1NS(=O)(=O)c1ccc(F)cc1F` [ZDQ-0620, 2,4-difluoro-N-(2-methoxy-5-(4-(3-morpholinopropyl)-3-oxo-3,4-dihydro-2H-benzo[b][1,4]oxazin-6-yl)pyridin-3-yl)benzenesulfonamide] in this work. It also gave an IC50 (PI3Kα) of 0.5 nM.
